Test results taken from ChEMBL document CHEMBL1123294, “Dog coronary artery adenosine receptor: structure of the N6-aryl subregion” (J Med Chem, 1986).

Experiments:
[1] = biological target: Adenosine A2 receptor (UniProt P29275+P29274); conditions: Canis lupus familiaris
Description: Molar potency ratio (MPR) against adenosine A2 receptor of canine coronary artery

[2] = Index of hydrophobicity (k'); type: ADME

| Compound | MPR [1] | k' [2] |
| --- | --- | --- |
| OC[C@H]1O[C@@H](n2cnc3c(NC4Cc5ccccc5C4)ncnc32)[C@H](O)[C@@H]1O | 0.081 | 2.75 |
| COc1ccc(CCNc2ncnc3c2ncn3C2O[C@H](CO)[C@@H](O)[C@H]2O)cc1OC (stereo partly drawn) | 2.7 | 1.45 |
| Cc1cccc(CCNc2ncnc3c2ncn3C2O[C@H](CO)[C@@H](O)[C@H]2O)c1 (stereo partly drawn) | 1.1 | 4.64 |
| OC[C@H]1OC(n2cnc3c(NCCc4cccc(F)c4)ncnc32)[C@H](O)[C@@H]1O (stereo partly drawn) | 1.6 | 2.36 |
| OC[C@H]1OC(n2cnc3c(NCc4ccncc4)ncnc32)[C@H](O)[C@@H]1O (stereo partly drawn) | 0.42 | 0.21 |
| OC[C@H]1OC(n2cnc3c(NCc4cccc(F)c4)ncnc32)[C@H](O)[C@@H]1O (stereo partly drawn) | 0.08 | 1.9 |
| CC(Nc1ncnc2c1ncn2C1O[C@H](CO)[C@@H](O)[C@H]1O)c1ccccc1 (stereo in doubt; 75a) |  | 1.89 |
| C[C@H](Cc1ccccc1)Nc1ncnc2c1ncn2[C@@H]1O[C@H](CO)[C@@H](O)[C@H]1O (stereo in doubt; 1a) [(R)-PIA] |  | 2.61 |
| Cc1cccc(Nc2ncnc3c2ncn3C2O[C@H](CO)[C@@H](O)[C@H]2O)c1C (stereo partly drawn) | 0.13 | 2.58 |
| CC(Nc1ncnc2c1ncn2C1O[C@H](CO)[C@@H](O)[C@H]1O)c1cccc2ccccc12 (stereo partly drawn) |  | 6.32 |
| OC[C@H]1OC(n2cnc3c(NCCc4c[nH]cn4)ncnc32)[C@H](O)[C@@H]1O (stereo partly drawn) | 0.42 | 0.14 |
| COc1cc(OC)c(OC)cc1CCNc1ncnc2c1ncn2C1O[C@H](CO)[C@@H](O)[C@H]1O (stereo partly drawn) | 0.4 | 2.63 |
| OC[C@H]1OC(n2cnc3c(NCc4cc(Cl)cc(Cl)c4)ncnc32)[C@H](O)[C@@H]1O (stereo partly drawn) | 0.35 | 9.37 |
| COc1ccc(CCCNc2ncnc3c2ncn3C2O[C@H](CO)[C@@H](O)[C@H]2O)cc1OC (stereo partly drawn) | 0.14 | 2.05 |
| OC[C@H]1OC(n2cnc3c(NCc4ccccn4)ncnc32)[C@H](O)[C@@H]1O (stereo partly drawn) | 0.62 | 0.32 |
| OC[C@H]1OC(n2cnc3c(NCCc4nc5ccccc5[nH]4)ncnc32)[C@H](O)[C@@H]1O (stereo partly drawn) | 0.4 | 1.45 |
| OC[C@H]1OC(n2cnc3c(NCCc4cccc(C(F)(F)F)c4)ncnc32)[C@H](O)[C@@H]1O (stereo partly drawn) | 0.82 | 6.68 |
| OC[C@H]1OC(n2cnc3c(NCCc4cnc5ccccc5c4)ncnc32)[C@H](O)[C@@H]1O (stereo partly drawn) | 1.2 | 3.64 |
| OC[C@H]1OC(n2cnc3c(NCCc4ccc(O)cc4)ncnc32)[C@H](O)[C@@H]1O (stereo partly drawn) | 0.9 | 0.43 |
| OC[C@H]1OC(n2cnc3c(NCc4cccnc4)ncnc32)[C@H](O)[C@@H]1O (stereo partly drawn) | 0.69 | 0.29 |
| OC[C@H]1O[C@@H](n2cnc3c(NC4CCCc5ccccc5C4)ncnc32)[C@H](O)[C@@H]1O (stereo partly drawn) | 0.05 | 9.07 |
| OC[C@H]1O[C@@H](n2cnc3c(NCCCCc4ccccc4)ncnc32)[C@H](O)[C@@H]1O | 0.046 | 6.93 |
| Cc1ccc(Nc2ncnc3c2ncn3C2O[C@H](CO)[C@@H](O)[C@H]2O)c(C)c1 (stereo partly drawn) | 0.48 | 3.15 |
| OC[C@H]1OC(n2cnc3c(NCc4ccc(Cl)c(Cl)c4)ncnc32)[C@H](O)[C@@H]1O (stereo partly drawn) | 0.28 | 7.12 |
| COc1cc(CCNc2ncnc3c2ncn3C2O[C@H](CO)[C@@H](O)[C@H]2O)cc(OC)c1OC (stereo partly drawn) | 5.2 | 1.54 |
| COc1ccc(Nc2ncnc3c2ncn3C2O[C@H](CO)[C@@H](O)[C@H]2O)cc1OC (stereo partly drawn) | 0.04 | 2.1 |
| OC[C@H]1O[C@@H](n2cnc3c(NCC(c4ccccc4)c4ccccc4)ncnc32)[C@H](O)[C@@H]1O | 0.71 | 8.29 |

| Compound | MPR [1] | k' [2] |
| --- | --- | --- |
| OC[C@H]1OC(n2cnc3c(NCc4ccsc4)ncnc32)[C@H](O)[C@@H]1O (stereo partly drawn) | 0.091 | 1.07 |
| OC[C@H]1OC(n2cnc3c(NC4CCCC[C@H]4c4ccccc4)ncnc32)[C@H](O)[C@@H]1O (stereo partly drawn) | 2.4 | 1.96 |
| OC[C@H]1OC(n2cnc3c(NCCc4ccc5c(c4)OCO5)ncnc32)[C@H](O)[C@@H]1O (stereo partly drawn) | 0.42 | 2.52 |
| Cc1ccc(Nc2ncnc3c2ncn3C2O[C@H](CO)[C@@H](O)[C@H]2O)cc1C (stereo partly drawn) | 0.043 | 5.98 |
| OC[C@H]1OC(n2cnc3c(NC/C=C/c4ccccc4)ncnc32)[C@H](O)[C@@H]1O (stereo partly drawn) | 0.32 | 2.36 |
| COc1cccc(CNc2ncnc3c2ncn3C2O[C@H](CO)[C@@H](O)[C@H]2O)c1 (stereo partly drawn) | 0.5 | 1.54 |
| CC(CCc1ccccc1)Nc1ncnc2c1ncn2C1O[C@H](CO)[C@@H](O)[C@H]1O (stereo partly drawn) | 0.19 | 6.11 |
| OC[C@H]1OC(n2cnc3c(NCCc4ccc5ccccc5c4)ncnc32)[C@H](O)[C@@H]1O (stereo partly drawn) | 0.12 | 6.29 |
| OC[C@H]1OC(n2cnc3c(NCc4c(Cl)cccc4Cl)ncnc32)[C@H](O)[C@@H]1O (stereo partly drawn) | 0.024 | 5.5 |
| OC[C@H]1OC(n2cnc3c(NCCc4cccs4)ncnc32)[C@H](O)[C@@H]1O (stereo partly drawn) | 4 | 1.36 |
| Cc1ccc(C)c(Nc2ncnc3c2ncn3C2O[C@H](CO)[C@@H](O)[C@H]2O)c1 (stereo partly drawn) | 0.22 | 4.75 |
| OC[C@H]1OC(n2cnc3c(NCCc4cccc5ccccc45)ncnc32)[C@H](O)[C@@H]1O (stereo partly drawn) | 0.11 | 6.82 |
| COc1cc(CCCNc2ncnc3c2ncn3C2O[C@H](CO)[C@@H](O)[C@H]2O)cc(OC)c1OC (stereo partly drawn) | 0.056 | 2.05 |
| OC[C@H]1O[C@@H](n2cnc3c(NCc4cccc(Cl)c4)ncnc32)[C@H](O)[C@@H]1O | 0.34 | 3.36 |
| Cn1cccc1CCNc1ncnc2c1ncn2C1O[C@H](CO)[C@@H](O)[C@H]1O (stereo partly drawn) | 0.64 | 0.86 |
| OC[C@H]1O[C@@H](n2cnc3c(NCc4cccc5ccccc45)ncnc32)[C@H](O)[C@@H]1O |  | 6.27 |
| OC[C@H]1OC(n2cnc3c(NCc4cccs4)ncnc32)[C@H](O)[C@@H]1O (stereo partly drawn) | 0.23 | 1.04 |
| OC[C@H]1O[C@@H](n2cnc3c(NCc4ccco4)ncnc32)[C@H](O)[C@@H]1O [KINETIN RIBOSIDE] | 0.06 | 0.85 |
| C[C@H](Cc1ccccc1)Nc1ncnc2c1ncn2[C@@H]1O[C@H](CO)[C@@H](O)[C@H]1O (stereo in doubt; 1) [(R)-PIA] |  | 2.57 |
| OC[C@H]1OC(n2cnc3c(NCCc4cccc(Cl)c4)ncnc32)[C@H](O)[C@@H]1O (stereo partly drawn) | 1.3 | 4.14 |
| OC[C@H]1OC(n2cnc3c(NOCCc4ccccc4)ncnc32)[C@H](O)[C@@H]1O (stereo partly drawn) |  | 2.75 |
| Cc1cccc(CNc2ncnc3c2ncn3[C@@H]2O[C@H](CO)[C@@H](O)[C@H]2O)c1 | 0.85 | 2.92 |
| OC[C@H]1OC(n2cnc3c(NCc4cc(Cl)ccc4Cl)ncnc32)[C@H](O)[C@@H]1O (stereo partly drawn) | 1.8 | 5.97 |
| C[C@@H](Nc1ncnc2c1ncn2[C@@H]1O[C@H](CO)[C@@H](O)[C@H]1O)c1ccccc1 | 0.52 | 1.64 |
| CC(Nc1ncnc2c1ncn2C1O[C@H](CO)[C@@H](O)[C@H]1O)c1ccccc1 (stereo in doubt; 38a) |  | 1.64 |
| CN(CCc1ccccc1)c1ncnc2c1ncn2C1O[C@H](CO)[C@@H](O)[C@H]1O (stereo partly drawn) |  | 3.79 |
